We go through 101 molecules from PubChem BioAssay AID1549 (Sanford-Burnham Center for Chemical Genomics, 2009).

Each structure is given as a SMILES string. Calls of active or inactive are those of the source. How the calls were made is not given here.

This assay concerns the target Influenza A virus M2 proton channel (A/TW/4845/1999 H1N1). Kind of assay: NMR binding screen, influenza A virus M2 proton channel, Kd (AID 1549). The settings on record: M2 protein.
For the molecule `Cc1c(/C=N/O)cnn1C`, the Kd was > 4 mM (inactive).

Consider `c1ccc(-n2nnnc2-n2cnc3ccccc32)cc1`, for which the Kd is > 4 mM (inactive).

As for `Cc1ccc(C(O)c2nccn2C)o1` (stereo unspecified), the Kd was > 4 mM (inactive).

On to `Cc1ccc(N2C(=O)CCC2=O)cc1`, for which the Kd was > 4 mM (inactive).

For `c1coc(CNc2nc(-c3ccncc3)cs2)c1`, the Kd was > 4 mM (inactive).

Turning to `CC(=O)c1cccc(NC(=O)NN2CCOCC2)c1`, the Kd is > 4 mM (inactive).

Take `CC(=O)c1c(C)nc(-c2ccc(F)cc2)n1O`: the Kd was > 4 mM (inactive).

On to `CC(=O)O[C@H]1CC[C@@]2(C)C(C[C@@H](OC(C)=O)[C@@]3(C)C4=CC(=O)O[C@@H](c5ccoc5)[C@]4(C)CCC23)C1(C)C` (stereo partly specified), for which the Kd was > 4 mM (inactive).

Regarding `CC(=O)O[C@H]1C[C@@H](OC(C)=O)C(C)(C)C2C[C@@H](OC(C)=O)[C@@]3(C)C4=CC(=O)O[C@@H](c5ccoc5)[C@]4(C)CCC3[C@]21C` (stereo partly specified), the Kd is > 4 mM (inactive).

As to `OC1COCc2nc3ccccc3n2C1` (stereo unspecified), the Kd was > 4 mM (inactive).

With `c1ccc(-c2noc(-c3ccco3)n2)nc1`, the Kd was > 4 mM (inactive).

Consider `CCOC(=O)Nc1ccc2c(C)cc(=O)oc2c1`, for which the Kd was > 4 mM (inactive).

On to `Cc1ccccc1CSc1nnc(C)n1N`, for which the Kd was > 4 mM (inactive).

As to `C=C[C@](C)(O)CCC=C(C)C`, the Kd is > 4 mM (inactive).

With `CC(=O)Oc1c2c(c(CC=C(C)C)c3c1C(=O)C1=C[C@@H]4CC5C(C)(C)OC(C/C=C(\C)C(=O)O)(C4=O)[C@@]15O3)OC(C)(CCC=C(C)C)C=C2` (stereo partly specified), the Kd is > 4 mM (inactive).

Consider `Cc1ncc(C[n+]2csc3ccccc32)c(N)n1`, for which the Kd was > 4 mM (inactive).

As for `COc1ccc(-c2cn[nH]c2N)c(OC)c1`, the Kd was > 4 mM (inactive).

Take `CC(C)=CC1C(CO)C1(C)C` (stereo unspecified): the Kd was > 4 mM (inactive).

For the molecule `CC(=O)Nc1cc2c(cc1C(=O)C(C)C)OCCO2`, the Kd was > 4 mM (inactive).

With `CC(=O)Nc1ccc(-c2cn3ccsc3n2)cc1`, the Kd is > 4 mM (inactive).

As for `CNC[C@@H](O)c1ccc(O)c(O)c1`, the Kd is > 4 mM (inactive).

For `COc1cc(C(=S)N2CCOCC2)ccc1O`, the Kd is > 4 mM (inactive).

`Cc1ccc(NC(=O)CC2NCCNC2=O)c(C)c1` (stereo unspecified): the Kd is > 4 mM (inactive).

Take `CCOC(=O)C1=C(C)N2CCN=C2S1`: the Kd was > 4 mM (inactive).

As for `CC(=O)Nc1nc(C)c(C(C)=O)s1`, the Kd was > 4 mM (inactive).

Consider `CCOC(=O)c1cnc2n(c1=O)CCS2`, for which the Kd is > 4 mM (inactive).

As for `O=C(N1CCOCC1)N1CCN(c2ccccn2)CC1`, the Kd is > 4 mM (inactive).

On to `CC(=O)N1CN(C(C)=O)CN(C(C)=O)C1`, for which the Kd is > 4 mM (inactive).

`Cc1ccc(/C=C2/C(=O)N=C(N)N2C)s1`: the Kd is > 4 mM (inactive).

For `O=C(O)C1CCN(c2ccc(C(F)(F)F)cn2)CC1`, the Kd was > 4 mM (inactive).

On to `c1ccc(-c2noc(-c3ccc4c(c3)OCO4)n2)nc1`, for which the Kd is > 4 mM (inactive).

For the molecule `CN1CCn2c1nc(N1CCCCC1)nc2=O`, the Kd was > 4 mM (inactive).

With `O=C(O)c1cccnc1N1CCCC1`, the Kd is > 4 mM (inactive).

`O=C(O[C@@H]1Cc2c(O)cc(O)cc2O[C@@H]1c1cc(O)c(O)c(O)c1-c1c([C@H]2Oc3cc(O)cc(O)c3C[C@H]2O)cc(O)c(O)c1O)c1cc(O)c(O)c(O)c1`: the Kd was > 4 mM (inactive).

Consider `CN(C)C(=O)CSc1nc(N)cc(=O)[nH]1`, for which the Kd is > 4 mM (inactive).

As to `c1ccc(-n2cnnc2)nc1`, the Kd is > 4 mM (inactive).

As to `O=C(Nc1nccs1)c1ccc(=O)[nH]n1`, the Kd is > 4 mM (inactive).

On to `Cc1nn2c(nc1=O)SCC2(O)c1ccccc1` (stereo unspecified), for which the Kd is > 4 mM (inactive).

Regarding `COc1nc(C)ccc1-c1noc(-c2ccncc2)n1`, the Kd is > 4 mM (inactive).

Turning to `CC(=O)c1c(C)nc(-c2cccs2)n1O`, the Kd was > 4 mM (inactive).

As for `CC(=O)c1nnc2cc(C)nn2c1C`, the Kd is > 4 mM (inactive).

As for `Cc1c(N=CN(C)C)c(=O)n(-c2ccccc2)n1C`, the Kd is > 4 mM (inactive).

Consider `c1ccc2nc3c(nc2c1)CCc1nonc1-3`, for which the Kd is > 4 mM (inactive).

For `COc1ccc2c(c1)=C(c1sc(N)nc1O)C(=O)N=2`, the Kd was > 4 mM (inactive).

With `Cc1c(O)c(O)cc2c1CC=C1[C@@]2(C)CC[C@@]2(C)C3C[C@](C)(C(=O)O)CC[C@]3(C)CC[C@]12C` (stereo partly specified), the Kd is > 4 mM (inactive).

Turning to `Cc1[nH]c2ccccc2c1C=Nn1cncn1`, the Kd was > 4 mM (inactive).

Turning to `CCN1CCC(NC2CCC(O)CC2)CC1` (stereo unspecified), the Kd was > 4 mM (inactive).

For `O=C(Nc1ccncc1)c1c(F)cccc1F`, the Kd was > 4 mM (inactive).

Turning to `Nc1ccc(OC(F)(F)F)cc1`, the Kd is > 4 mM (inactive).

As for `NC(=O)CSc1nnc(-c2cccnc2)o1`, the Kd is > 4 mM (inactive).

With `NC(=O)NC(=O)Nc1ccc(Cl)cc1`, the Kd was > 4 mM (inactive).

`O=C(O)c1ccccc1C(=O)NCC1CCCO1` (stereo unspecified): the Kd was > 4 mM (inactive).

For `O=C1CSC2=NCCCN12`, the Kd was > 4 mM (inactive).

As to `CC(=O)Nc1cc(S(=O)(=O)N(C)C)ccc1Cl`, the Kd is > 4 mM (inactive).

Turning to `COc1cc(-c2coc3cc(O[C@@H]4O[C@H](CO)[C@@H](O)[C@H](O)[C@H]4O)c(OC)c(O)c3c2=O)cc(O)c1OC`, the Kd is > 4 mM (inactive).

Take `Cc1ccc(/C=N/NC(N)=O)o1`: the Kd was > 4 mM (inactive).

For the molecule `CCC[C@@H]1CCCCN1`, the Kd was > 4 mM (inactive).

Turning to `O=C(Nc1ccc2c(c1)OCCO2)c1c(F)cccc1F`, the Kd is > 4 mM (inactive).

On to `S=c1nc(Cc2ccccc2)[nH][nH]1`, for which the Kd was > 4 mM (inactive).

Regarding `CNC(Cc1c[nH]c2ccccc12)C(=O)O` (stereo unspecified), the Kd is > 4 mM (inactive).

In the case of `OCCN1CCN(C(=S)c2ccc(Cl)cc2)CC1`, the Kd was > 4 mM (inactive).

For `COc1ccccc1NC(=O)c1snnc1C`, the Kd was > 4 mM (inactive).

As to `OC/C=C/c1ccc(O)c(O)c1`, the Kd is > 4 mM (inactive).

Turning to `Cc1cccc(NC(=O)c2ccccc2C(=O)O)c1`, the Kd was > 4 mM (inactive).

As to `N#Cc1cccc(Cn2nnc(-c3ccccc3)n2)c1`, the Kd is > 4 mM (inactive).

With `Cc1ccc(C(=O)Nc2ccncc2)o1`, the Kd was > 4 mM (inactive).

Regarding `O=C(NCN1CCOCC1)c1cnccn1`, the Kd is > 4 mM (inactive).

As for `C1CCN2C[C@@H]3C[C@H](CN4CCCC[C@@H]34)[C@H]2C1`, the Kd is > 4 mM (inactive).

In the case of `NC(=O)C1(S(=O)(=O)c2ccccc2)CC1`, the Kd is > 4 mM (inactive).

`O=C(CSc1ccccc1)N1CCC2(CC1)OCCO2`: the Kd was > 4 mM (inactive).

For `O=c1[nH]cc(CN2CCOCC2)c(=O)[nH]1`, the Kd is > 4 mM (inactive).

As to `CC(C)(C)CC(=O)NNC(=O)c1cnccn1`, the Kd was > 4 mM (inactive).

Regarding `O=C(Nc1ccncc1)c1cncc(Br)c1`, the Kd was > 4 mM (inactive).

As for `CC1(C)CC2C1CCC1(C)OC1CCC2(C)O` (stereo unspecified), the Kd is > 4 mM (inactive).

On to `COc1cccc(NC(=O)c2ncn[nH]2)c1`, for which the Kd is > 4 mM (inactive).

Consider `COc1ccc(C)cc1S(=O)(=O)Nc1ccccc1C`, for which the Kd was > 4 mM (inactive).

As to `COC(=O)c1noc(-c2ccc(OC)cc2)n1`, the Kd is > 4 mM (inactive).

Consider `O=C(Nc1cnc2ccccn2c1=O)c1ccc(F)cc1`, for which the Kd is > 4 mM (inactive).

Regarding `CCn1nnc2c(NCc3ccccn3)ncnc21`, the Kd was > 4 mM (inactive).

For the molecule `O=C1C2CC=CCC2C(=O)N1c1ccccc1O` (stereo unspecified), the Kd was > 4 mM (inactive).

`CSc1ccccc1NC(=O)c1ccoc1C`: the Kd is > 4 mM (inactive).

Regarding `COc1ccc(Cl)cc1NC(=O)c1ccco1`, the Kd is > 4 mM (inactive).

As to `C[C@@H]1OC(O[C@H]2C(O[C@H]3CC[C@@]4(C)C(CC[C@]5(C)C4CC=C4C6CC(C)(C)CC[C@]6(C(=O)O)CC[C@]45C)[C@]3(C)CO)OC[C@H](O)[C@@H]2O)[C@H](O)[C@H](O)[C@H]1O` (stereo partly specified), the Kd is > 4 mM (inactive).

On to `COc1ccc2c(c1)c1n[nH]c(=S)nc1n2C`, for which the Kd was > 4 mM (inactive).

With `Cn1c(SCC(=O)NCCO)nc2ccccc2c1=O`, the Kd was > 4 mM (inactive).

Consider `COc1ccc(S(=O)(=O)NCCO)cc1`, for which the Kd was > 4 mM (inactive).

With `NC(=O)CNC(=O)c1ccc2ccccc2n1`, the Kd is > 4 mM (inactive).

Turning to `NC(=O)COc1cccc2cccnc12`, the Kd is > 4 mM (inactive).

Regarding `C[n+]1cc2c3c(ccc2c2ccc4cc5c(cc4c21)OCO5)OCO3`, the Kd is > 4 mM (inactive).

In the case of `CC1=NN(C(N)=S)C(C)(C)C1`, the Kd is > 4 mM (inactive).

`Cc1cc(C(=O)Nc2ccc3c(c2)OCCO3)c(C)o1`: the Kd was > 4 mM (inactive).

As for `COc1c2c(cc3c1OCO3)C13C=C[C@H](OC)CC1N(C2)CC3O` (stereo partly specified), the Kd is > 4 mM (inactive).

As to `CC(=O)N1CCN(c2ccc(O)cc2)CC1`, the Kd was > 4 mM (inactive).

For the molecule `Oc1cccc2[nH]ccc12`, the Kd was > 4 mM (inactive).

Turning to `CC(C)(O)P(C)(=O)c1ccccc1` (stereo unspecified), the Kd was > 4 mM (inactive).

`COC(=O)c1sc(N)nc1C`: the Kd is > 4 mM (inactive).

Regarding `CN(C)C(=S)Nc1ccccc1N1CCOCC1`, the Kd was > 4 mM (inactive).

As to `CC1(C)Cc2c(C#N)c(N)n(-c3ccccc3)c(=O)c2CO1`, the Kd is > 4 mM (inactive).

Consider `CC(=O)O[C@H]1CC[C@@]2(C)C(=CC(=O)C3C4CCC(C(C)CCCC(C)C)[C@@]4(C)CCC32)C1` (stereo partly specified), for which the Kd was > 4 mM (inactive).

For `O=C(Cc1cccs1)Nc1ccon1`, the Kd was > 4 mM (inactive).

On to `C=CCCCCCCCCCCCC(O)CC(O)CO` (stereo unspecified) (tested in a mixture with another compound), for which the Kd was > 4 mM (inactive).

As usually defined, the Kd is the equilibrium constant for the complex coming apart.
